From patent publication US20220372014A1, “NEUROPROTECTIVE COMPOUNDS AND METHODS OF USE THEREOF” (The Johns Hopkins University, priority 2019, published 2022) come the findings set out here.

The test system of experiment [1] is HeLa cells or neuronal cells. Nature of the experiment: Cell death assay of Example 3 (MNNG, alamarBlue; protection against parthanatos, Table 4). It is filed as cell-based. Conditions: 1 μM test compound, MNNG-induced cell death, alamarBlue. Here is the method:
Cell death assay: 200 μl of cells (HeLa cells or neuronal cells) culture (1×10^4 cells/well) were plated into the wells of a sterile 96-well cell culture plate. The cells were incubated for 18 hours at 37° C. The medium was removed and changed with 100 μl/well of 1 μM test compound. Incubate for 1 hours at 37° C. Ten μl of 500 μM MNNG (N-Methyl-N′-nitro-N-nitrosoguanidine) was added to each well. The medium was aspirated well and incubated for 15 min at 37° C. The cells were washed with the fresh medium. The medium was changed with 1 μM of test compound and incubated for 18 hours at 37° C. 10 μl/well of alamarBlue reagent was added directly to the well and incubated for 1 to 4 hours at 37° C. Fluorescence was measured using a fluorescence excitation wavelength of 560 nm and emission at 590 nm. The percentage of cell death was determined as the ratio of live to dead cells compared with the percentage of cell death in control wells to account for cell death attributed to mechanical stimulation of the cultures.
For orientation: Resazurin is reduced to fluorescent resorufin, in cell work by metabolically active cells.

In a further experiment the target is T1, MIF (Homo sapiens, UniProt P14174).
T1 sequence (P14174 1-115): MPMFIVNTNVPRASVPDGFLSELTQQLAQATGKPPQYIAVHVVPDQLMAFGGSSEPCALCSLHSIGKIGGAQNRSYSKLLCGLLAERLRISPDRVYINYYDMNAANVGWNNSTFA
Briefly: Nuclease assay of Example 3 (MIF inhibitory activity, Table 4). Conditions: nuclease assay of Example 3. The class given is biochemical. Details: (%) inhibition of MIF nuclease activity: concentration or dose not given beside the values. Here is the method: A rapafucin library was synthesized as described in WO2017/136708 and Guo et al. (2018) Nat. Chem. 11:254-63. The hybrid macrocyclic library consisted of 45,000 compounds in pools of 15 individual compounds. The library compounds were screened for MIF inhibitory activity using a nuclease assay as detailed in FIG. 1 and below.
Nuclease assay: Human genomic DNA (200 ng/reaction, Promega), pcDNA (200 ng/reaction) or PS^30 and its related and non-related substrates (1 μM) was incubated with wild type MIF or its variants at a final concentration of 0.25-8 μM as indicated in 10 mM Tris-HCl buffer (pH 7.0) containing 10 mM MgCl2 and 1 mM DTT or specific buffer as indicated, for 1 h (with pcDNA and small DNA substrates) or 4 h (with human genomic DNA) at 37° C. The reaction was terminated with loading buffer containing 10 mM EDTA and incubation on ice. The human genomic DNA samples were immediately separated on a 1.2% pulse field certified agarose in 0.5×TBE buffer with initial switch time of 1.5 s and a final switch time of 3.5 s for 12 h at 6 V/cm. pcDNA samples were determined by 1% agarose gel. Small DNA substrates were separated on 15% or 25% TBE-urea polyacrylamide (PAGE) gel or 20% TBE PAGE gel. Then gel was stained with 0.5 μg/ml Ethidium Bromide (EtBr) followed by electrophoretic transfer to nylon membrane. Then, Biotin-labeled DNA is further detected by chemiluminescence using Chemiluminescent Nucleic Acid Detection Module (Thermo Scientific).
Structure-activity relationship (SAR) analysis was then conducted on the compounds identified as having MIF inhibitory activity. Compounds having the structure of Formula (I) were then synthesized as shown in Example 1 and tested for MIF inhibitory activity using the nuclease assay described herein and neuronal protection via a cell death assay as detailed below.

For `COc1ccc(CC[C@H]2OC(=O)[C@@H]3CCCCN3C(=O)C(=O)C(C)(C)COC(=O)C=CCCN(C)C(=O)[C@H](Cc3ccccc3)NC(=O)[C@H](COC(C)(C)C)N(C)C(=O)[C@@H](CC(C)C)NC(=O)CN(C)C(=O)COc3cccc2c3)cc1OC` [compound 8], the “(%) inhibition of cell death” value in experiment [1] is reported as 61.6%. For the same compound, the “(%) inhibition of MIF nuclease activity” value on MIF stood at 31.3%.

Regarding `COc1ccc(CC[C@H]2OC(=O)[C@@H]3CCCCN3C(=O)C(=O)C(C)(C)COC(=O)C=CCCN(C)C(=O)[C@@H](Cc3ccccc3)NC(=O)[C@H](COC(C)(C)C)N(C)C(=O)[C@@H](CC(C)C)NC(=O)CN(C)C(=O)COc3cccc2c3)cc1OC` [compound 9], the “(%) inhibition of cell death” value in experiment [1] turned out to be 57.4%. In addition, the “(%) inhibition of MIF nuclease activity” value at MIF was found to be 16.5%.

Regarding `COc1ccc(CC[C@H]2OC(=O)[C@@H]3CCCCN3C(=O)C(=O)C(C)(C)COC(=O)C=CCCN(C)C(=O)[C@H](Cc3ccc(F)cc3)NC(=O)[C@H](COC(C)(C)C)N(C)C(=O)[C@@H](CC(C)C)NC(=O)CN(C)C(=O)COc3cccc2c3)cc1OC` [compound 10], the “(%) inhibition of cell death” value in experiment [1] is on record as 57.2%. On MIF, the “(%) inhibition of MIF nuclease activity” value was 56.8%.

Regarding `COc1ccc(CC[C@H]2OC(=O)[C@@H]3CCCCN3C(=O)C(=O)C(C)(C)COC(=O)C=CCCN(C)C(=O)[C@@H]3CCCN3C(=O)[C@H](COC(C)(C)C)N(C)C(=O)[C@@H](CC(C)C)NC(=O)CN(C)C(=O)COc3cccc2c3)cc1OC` [compound 11], the “(%) inhibition of cell death” value in experiment [1] was determined as 48.9%. In addition, the “(%) inhibition of MIF nuclease activity” value on MIF worked out at 25.6%.

Consider `COc1ccc(CC[C@H]2OC(=O)[C@@H]3CCCCN3C(=O)C(=O)C(C)(C)COC(=O)C=CCCN(C)C(=O)[C@H](CC3CCCCC3)NC(=O)[C@H](COC(C)(C)C)N(C)C(=O)[C@@H](CC(C)C)NC(=O)CN(C)C(=O)COc3cccc2c3)cc1OC` [compound 12], for which the “(%) inhibition of cell death” value in experiment [1] was found to be 52.0%. Moreover, the “(%) inhibition of MIF nuclease activity” value on MIF was 28.9%.

Regarding `COc1ccc(CC[C@H]2OC(=O)[C@@H]3CCCCN3C(=O)C(=O)C(C)(C)COC(=O)C=CCCN(C)C(=O)[C@H](Cc3ccc4ccccc4c3)NC(=O)[C@H](COC(C)(C)C)N(C)C(=O)[C@@H](CC(C)C)NC(=O)CN(C)C(=O)COc3cccc2c3)cc1OC` [compound 13], the “(%) inhibition of cell death” value in experiment [1] was 46.7%. At MIF, the “(%) inhibition of MIF nuclease activity” value is on record as 21.9%.

Regarding `COc1ccc(CC[C@H]2OC(=O)[C@@H]3CCCCN3C(=O)C(=O)C(C)(C)COC(=O)C=CCCN(C)C(=O)[C@H](C(C)C)NC(=O)[C@H](COC(C)(C)C)N(C)C(=O)[C@@H](CC(C)C)NC(=O)CN(C)C(=O)COc3cccc2c3)cc1OC` [compound 14], the “(%) inhibition of cell death” value in experiment [1] is 41.6%. Further, the “(%) inhibition of MIF nuclease activity” value at MIF was determined as 11.2%.

Take `COc1ccc(CC[C@H]2OC(=O)[C@@H]3CCCCN3C(=O)C(=O)C(C)(C)COC(=O)C=CCCN(C)C(=O)C(c3ccccc3)NC(=O)[C@H](COC(C)(C)C)N(C)C(=O)[C@@H](CC(C)C)NC(=O)CN(C)C(=O)COc3cccc2c3)cc1OC` (stereo partly shown) [compound 15]: the “(%) inhibition of cell death” value in experiment [1] worked out at 53.4%. The “(%) inhibition of MIF nuclease activity” value at MIF came out at 8.7%.

`COc1ccc(CC[C@H]2OC(=O)[C@@H]3CCCCN3C(=O)C(=O)C(C)(C)COC(=O)C=CCCN(C)C(=O)[C@H](C)NC(=O)[C@H](COC(C)(C)C)N(C)C(=O)[C@H](Cc3ccc4ccccc4c3)NC(=O)[C@H](C)N(C)C(=O)COc3cccc2c3)cc1OC` [compound 17]: the “(%) inhibition of cell death” value in experiment [1] stood at 78.3%. In addition, the “(%) inhibition of MIF nuclease activity” value on MIF is on record as 63.7%.

As to `COc1ccc(CC[C@H]2OC(=O)[C@@H]3CCCCN3C(=O)C(=O)C(C)(C)COC(=O)C=CCCN(C)C(=O)[C@@H](C)NC(=O)[C@H](COC(C)(C)C)N(C)C(=O)[C@H](Cc3ccc4ccccc4c3)NC(=O)[C@H](C)N(C)C(=O)COc3cccc2c3)cc1OC` [compound 18], in experiment [1], the “(%) inhibition of cell death” value is given as 78.4%. Also, the “(%) inhibition of MIF nuclease activity” value at MIF is given as 65.0%.

As for `CCC[C@@H]1NC(=O)[C@H](COC(C)(C)C)N(C)C(=O)[C@@H](Cc2ccc3ccccc3c2)NC(=O)[C@H](C)N(C)C(=O)COc2cccc(c2)[C@@H](CCc2ccc(OC)c(OC)c2)OC(=O)[C@@H]2CCCCN2C(=O)C(=O)C(C)(C)COC(=O)C=CCCN(C)C1=O` [compound 19], the “(%) inhibition of cell death” value in experiment [1] turned out to be 62.4%. For the same compound, on MIF, the “(%) inhibition of MIF nuclease activity” value amounted to 59.9%.

For `COCC[C@@H]1NC(=O)[C@H](COC(C)(C)C)N(C)C(=O)[C@H](Cc2ccc3ccccc3c2)NC(=O)[C@H](C)N(C)C(=O)COc2cccc(c2)[C@@H](CCc2ccc(OC)c(OC)c2)OC(=O)[C@@H]2CCCCN2C(=O)C(=O)C(C)(C)COC(=O)C=CCCN(C)C1=O` [compound 20], in experiment [1], the “(%) inhibition of cell death” value is listed as 60.6%. The “(%) inhibition of MIF nuclease activity” value on MIF was determined as 42.2%.

Turning to `COc1ccc(CC[C@H]2OC(=O)[C@@H]3CCCCN3C(=O)C(=O)C(C)(C)COC(=O)C=CCCN(C)C(=O)[C@H](CC(C)C)NC(=O)[C@H](COC(C)(C)C)N(C)C(=O)[C@H](Cc3ccc4ccccc4c3)NC(=O)[C@H](C)N(C)C(=O)COc3cccc2c3)cc1OC` [compound 21], the “(%) inhibition of cell death” value in experiment [1] was found to be 61.0%. For the same compound, the “(%) inhibition of MIF nuclease activity” value on MIF was 57.9%.

Take `COc1ccc(CC[C@H]2OC(=O)[C@@H]3CCCCN3C(=O)C(=O)C(C)(C)COC(=O)C=CCCN(C)C(=O)[C@@H](CC(C)C)NC(=O)[C@H](COC(C)(C)C)N(C)C(=O)[C@H](Cc3ccc4ccccc4c3)NC(=O)[C@H](C)N(C)C(=O)COc3cccc2c3)cc1OC` [compound 22]: in experiment [1], the “(%) inhibition of cell death” value is 56.9%. Moreover, on MIF, the “(%) inhibition of MIF nuclease activity” value is on record as 61.8%.

As for `COc1ccc(CC[C@H]2OC(=O)[C@@H]3CCCCN3C(=O)C(=O)C(C)(C)COC(=O)C=CCCN(C)C(=O)[C@H](Cc3ccccc3)NC(=O)[C@H](COC(C)(C)C)N(C)C(=O)[C@H](Cc3ccc4ccccc4c3)NC(=O)[C@H](C)N(C)C(=O)COc3cccc2c3)cc1OC` [compound 23], the “(%) inhibition of cell death” value in experiment [1] was found to be 58.7%. Moreover, the “(%) inhibition of MIF nuclease activity” value at MIF stood at 45.7%.

Turning to `COc1ccc(CC[C@H]2OC(=O)[C@@H]3CCCCN3C(=O)C(=O)C(C)(C)COC(=O)C=CCCN(C)C(=O)[C@@H](Cc3ccccc3)NC(=O)[C@H](COC(C)(C)C)N(C)C(=O)[C@H](Cc3ccc4ccccc4c3)NC(=O)[C@H](C)N(C)C(=O)COc3cccc2c3)cc1OC` [compound 24], the “(%) inhibition of cell death” value in experiment [1] amounted to 57.4%. Besides, the “(%) inhibition of MIF nuclease activity” value at MIF is listed as 40.3%.

Turning to `COc1ccc(CC[C@H]2OC(=O)[C@@H]3CCCCN3C(=O)C(=O)C(C)(C)COC(=O)C=CCCN(C)C(=O)[C@H](Cc3ccc(F)cc3)NC(=O)[C@H](COC(C)(C)C)N(C)C(=O)[C@H](Cc3ccc4ccccc4c3)NC(=O)[C@H](C)N(C)C(=O)COc3cccc2c3)cc1OC` [compound 25], the “(%) inhibition of cell death” value in experiment [1] is 59.1%. Moreover, the “(%) inhibition of MIF nuclease activity” value at MIF is 25.8%.

As to `COc1ccc(CC[C@H]2OC(=O)[C@@H]3CCCCN3C(=O)C(=O)C(C)(C)COC(=O)C=CCCN(C)C(=O)[C@@H]3CCCN3C(=O)[C@H](COC(C)(C)C)N(C)C(=O)[C@H](Cc3ccc4ccccc4c3)NC(=O)[C@H](C)N(C)C(=O)COc3cccc2c3)cc1OC` [compound 26], the “(%) inhibition of cell death” value in experiment [1] is reported as 71.2%. For the same compound, the “(%) inhibition of MIF nuclease activity” value at MIF was found to be 64.9%.

As for `COc1ccc(CC[C@H]2OC(=O)[C@@H]3CCCCN3C(=O)C(=O)C(C)(C)COC(=O)C=CCCN(C)C(=O)[C@H](CC3CCCCC3)NC(=O)[C@H](COC(C)(C)C)N(C)C(=O)[C@@H](Cc3ccc4ccccc4c3)NC(=O)[C@H](C)N(C)C(=O)COc3cccc2c3)cc1OC` [compound 27], the “(%) inhibition of cell death” value in experiment [1] came out at 72.1%. For the same compound, the “(%) inhibition of MIF nuclease activity” value at MIF is on record as 78.4%.

As for `COc1ccc(CC[C@H]2OC(=O)[C@@H]3CCCCN3C(=O)C(=O)C(C)(C)COC(=O)C=CCCN(C)C(=O)[C@H](Cc3ccc4ccccc4c3)NC(=O)[C@H](COC(C)(C)C)N(C)C(=O)[C@H](Cc3ccc4ccccc4c3)NC(=O)[C@H](C)N(C)C(=O)COc3cccc2c3)cc1OC` [compound 28], in experiment [1], the “(%) inhibition of cell death” value turned out to be 69.6%. For the same compound, on MIF, the “(%) inhibition of MIF nuclease activity” value is 66.6%.
